Experimental data published in PubChem BioAssay AID248 (DTP/NCI, 2004).
Inconclusive results and toxic doses are left out. No stated cut-off is given here; in the data, active means T/C of 150% or more; inactive means T/C below 125%.

Tested on: L1210 leukemia ip in BDF1 mice, survival T/C
Assay: NCI In Vivo Anticancer Drug Screen. Data for tumor model L1210 Leukemia (intraperitoneal) in B6D2F1 (BDF1) mice
Conditions: endpoint: mean survival time, higher = longer survival
In short: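 Tumor was transplanted into mice, which were then dosed with test compound or vehicle alone. Survival was recorded for each group, and the treated figure was expressed relative to the control figure.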

[1] = dose: 100.0 mg/kg/injection, schedule: Q04DX002 (ip), vehicle: saline with Tween-80
[2] = dose: 200.0 mg/kg/injection, schedule: Q04DX002 (ip), vehicle: saline with Tween-80
[3] = dose: 400.0 mg/kg/injection, schedule: Q04DX002 (ip), vehicle: saline with Tween-80
[4] = dose: 100.0 mg/kg/injection, schedule: Q01DX009 (ip), vehicle: Klucel (hydroxypropylcellulose) (HPC)
[5] = dose: 200.0 mg/kg/injection, schedule: Q01DX009 (ip), vehicle: Klucel (hydroxypropylcellulose) (HPC)
[6] = dose: 400.0 mg/kg/injection, schedule: Q01DX009 (ip), vehicle: Klucel (hydroxypropylcellulose) (HPC)
[7] = dose: 100.0 mg/kg/injection, schedule: Q04DX003 (ip), vehicle: Klucel (hydroxypropylcellulose) (HPC)
[8] = dose: 200.0 mg/kg/injection, schedule: Q04DX003 (ip), vehicle: Klucel (hydroxypropylcellulose) (HPC)
[9] = dose: 400.0 mg/kg/injection, schedule: Q04DX003 (ip), vehicle: Klucel (hydroxypropylcellulose) (HPC)
[10] = dose: 200.0 mg/kg/injection, schedule: Q01DX001 (ip), vehicle: carboxymethylcellulose (CMC)
[11] = dose: 100.0 mg/kg/injection, schedule: Q01DX001 (ip), vehicle: saline
[12] = dose: 200.0 mg/kg/injection, schedule: Q01DX001 (ip), vehicle: saline
[13] = dose: 400.0 mg/kg/injection, schedule: Q01DX001 (ip), vehicle: saline

Measured: T/C

C[N+](C)(C)C1/C=C(/Cl)CC/C=C(/Cl)C1 (stereo not given)
inactive: dose: 9.38 mg/kg/injection, schedule: Q01DX001 (ip), vehicle: saline 96 % of control | dose: 18.75 mg/kg/injection, schedule: Q01DX001 (ip), vehicle: saline 89 % of control | dose: 37.5 mg/kg/injection, schedule: Q01DX001 (ip), vehicle: saline 97 % of control

CC(=O)Oc1ccccc1C1SCSCS1
inactive: dose: 100.0 mg/kg/injection, schedule: Q01DX001 (ip), vehicle: Klucel (hydroxypropylcellulose) (HPC) 100 % of control | dose: 200.0 mg/kg/injection, schedule: Q01DX001 (ip), vehicle: Klucel (hydroxypropylcellulose) (HPC) 100 % of control | dose: 400.0 mg/kg/injection, schedule: Q01DX001 (ip), vehicle: Klucel (hydroxypropylcellulose) (HPC) 94 % of control

OCC1OC(n2cnc3c2NC=NC[C@H]3O)CC1O (stereo not given in full)
inactive: dose: 0.13 mg/kg/injection, schedule: Q01DX005 (ip), vehicle: water 100 % of control | dose: 0.13 mg/kg/injection, schedule: Q01DX009 (ip), vehicle: water 104 % of control | dose: 0.25 mg/kg/injection, schedule: Q01DX005 (ip), vehicle: water 105 % of control | dose: 0.25 mg/kg/injection, schedule: Q01DX009 (ip), vehicle: water 101 % of control | dose: 0.25 mg/kg/injection, schedule: Q04DX002 (ip), vehicle: water 98 % of control | dose: 0.25 mg/kg/injection, schedule: Q04DX003 (ip), vehicle: water 98 % of control | dose: 0.5 mg/kg/injection, schedule: Q04DX002 (ip), vehicle: water 95 % of control | dose: 0.5 mg/kg/injection, schedule: Q04DX003 (ip), vehicle: water 106 % of control

OC1COC(c2ccccc2)OC1C(O)C1OC(c2ccccc2)OCC1O (stereo not given)
inactive: [1] 89 % of control | [2] 105 % of control | [3] 102 % of control

Cc1ccc(S(=O)(=O)Nc2ccc([N+](=O)[O-])cc2O)cc1
inactive: [4] 97 % of control | [5] 101 % of control | [6] 94 % of control

c1ccc(-c2ccccc2NC2=NCCO2)cc1
inactive: dose: 12.5 mg/kg/injection, schedule: Q01DX009 (ip), vehicle: saline with Tween-80 100 % of control | dose: 25.0 mg/kg/injection, schedule: Q01DX009 (ip), vehicle: saline with Tween-80 94 % of control | dose: 50.0 mg/kg/injection, schedule: Q01DX009 (ip), vehicle: saline with Tween-80 94 % of control

CC(=O)OC(COS(=O)(=O)c1ccc(C)cc1)C1OCOC(COS(=O)(=O)c2ccc(C)cc2)C1OC(C)=O (stereo not given)
inactive: dose: 100.0 mg/kg/injection, schedule: Q01DX001 (ip), vehicle: saline with Tween-80 92 % of control | dose: 200.0 mg/kg/injection, schedule: Q01DX001 (ip), vehicle: saline with Tween-80 93 % of control | dose: 400.0 mg/kg/injection, schedule: Q01DX001 (ip), vehicle: saline with Tween-80 95 % of control

N=C(N)N(CC(=O)O)Cc1ccccc1
inactive: [1] 101 % of control | [2] 114 % of control | [3] 104 % of control

CC(=O)Nc1ccc2c(c1)Cc1cc(Br)ccc1-2
inactive: [7] 100 % of control | [8] 100 % of control | [9] 103 % of control

CC12OC3C4C(=O)OC1C1OC4(C)C3C(=O)OC12
inactive: dose: 100.0 mg/kg/injection, schedule: Q04DX003 (ip), vehicle: saline 102 % of control | dose: 200.0 mg/kg/injection, schedule: Q04DX003 (ip), vehicle: saline 97 % of control | dose: 400.0 mg/kg/injection, schedule: Q04DX003 (ip), vehicle: saline 95 % of control

O=C(Nc1ccccc1C(=O)N/N=C/c1ccccc1O)c1ccccc1Cl
inactive: [4] 94 % of control | [5] 94 % of control | [6] 94 % of control

CCCCC(CCCC)NCCOC(=O)c1ccc(N)cc1
inactive: dose: 75.0 mg/kg/injection, schedule: Q01DX001 (ip), vehicle: other 102 % of control

O=C(NCCCl)Nc1ccc(Cl)c(Cl)c1
inactive: dose: 100.0 mg/kg/injection, schedule: Q01DX001 (ip), vehicle: carboxymethylcellulose (CMC) 101 % of control | [4] 94 % of control | [10] 95 % of control | [5] 98 % of control | dose: 400.0 mg/kg/injection, schedule: Q01DX001 (ip), vehicle: carboxymethylcellulose (CMC) 106 % of control

COc1ccc(C(O)CNC(=O)c2ccccc2)cc1 (stereo not given)
inactive: dose: 25.0 mg/kg/injection, schedule: Q04DX003 (ip), vehicle: Klucel (hydroxypropylcellulose) (HPC) 102 % of control | dose: 50.0 mg/kg/injection, schedule: Q04DX003 (ip), vehicle: Klucel (hydroxypropylcellulose) (HPC) 97 % of control | [11] 96 % of control | [7] 87 % of control | [12] 104 % of control | [13] 98 % of control | [9] 109 % of control

S=C(N=Nc1ccccc1)NNc1ccccc1
inactive: dose: 18.8 mg/kg/injection, schedule: Q04DX003 (ip), vehicle: saline with Tween-80 90 % of control | dose: 18.9 mg/kg/injection, schedule: Q01DX009 (ip), vehicle: saline with Tween-80 87 % of control | dose: 30.0 mg/kg/injection, schedule: Q01DX Z (ip), vehicle: carboxymethylcellulose (CMC) 92 % of control | dose: 37.5 mg/kg/injection, schedule: Q01DX009 (ip), vehicle: saline with Tween-80 92 % of control | dose: 37.5 mg/kg/injection, schedule: Q01DX Z (ip), vehicle: carboxymethylcellulose (CMC) 97 % of control | dose: 37.5 mg/kg/injection, schedule: Q04DX003 (ip), vehicle: saline with Tween-80 87 % of control | dose: 45.0 mg/kg/injection, schedule: Q01DX Z (ip), vehicle: carboxymethylcellulose (CMC) 97 % of control | dose: 75.0 mg/kg/injection, schedule: Q01DX009 (ip), vehicle: saline with Tween-80 90 % of control | dose: 75.0 mg/kg/injection, schedule: Q01DX Z (ip), vehicle: carboxymethylcellulose (CMC) 92 % of control | dose: 75.0 mg/kg/injection, schedule: Q04DX003 (ip), vehicle: saline with Tween-80 92 % of control | dose: 150.0 mg/kg/injection, schedule: Q04DX003 (ip), vehicle: saline with Tween-80 88 % of control | [10] 101 % of control

CC(=O)OC1=C(CC=C(C)C)C(=O)c2ccccc2C1=O
inactive: dose: 50.0 mg/kg/injection, schedule: Q01DX001 (ip), vehicle: water 97 % of control | dose: 100.0 mg/kg/injection, schedule: Q01DX001 (ip), vehicle: water 95 % of control | dose: 200.0 mg/kg/injection, schedule: Q01DX001 (ip), vehicle: water 100 % of control | dose: 400.0 mg/kg/injection, schedule: Q01DX001 (ip), vehicle: water 104 % of control

Cc1ccc(C)c2c1[nH]c1c(C)c3ccncc3c(C)c12
inactive: dose: 25.0 mg/kg/injection, schedule: Q01DX Z (ip), vehicle: saline 103 % of control | dose: 50.0 mg/kg/injection, schedule: Q01DX Z (ip), vehicle: saline 103 % of control | [11] 100 % of control | dose: 100.0 mg/kg/injection, schedule: Q01DX Z (ip), vehicle: saline 112 % of control | [12] 96 % of control | [13] 103 % of control

O=C(COc1ccccc1)Oc1c(Cl)cc(Cl)cc1Cl
inactive: [7] 98 % of control | [8] 100 % of control | [9] 100 % of control

O=C1C=C(c2ccccc2)S(=O)(=O)C(c2ccccc2)=C1
inactive: dose: 37.5 mg/kg/injection, schedule: Q04DX002 (ip), vehicle: Klucel (hydroxypropylcellulose) (HPC) 97 % of control | dose: 75.0 mg/kg/injection, schedule: Q01DX001 (ip), vehicle: carboxymethylcellulose (CMC) 124 % of control | dose: 75.0 mg/kg/injection, schedule: Q04DX002 (ip), vehicle: Klucel (hydroxypropylcellulose) (HPC) 108 % of control | dose: 150.0 mg/kg/injection, schedule: Q04DX002 (ip), vehicle: Klucel (hydroxypropylcellulose) (HPC) 101 % of control

Cc1nc(-c2ccc(N=Cc3ccc(N(CCCOS(C)(=O)=O)CCCOS(C)(=O)=O)cc3C)cc2)c(C)s1
inactive: dose: 100.0 mg/kg/injection, schedule: Q01DX009 (ip), vehicle: saline with Tween-80 100 % of control | dose: 200.0 mg/kg/injection, schedule: Q01DX009 (ip), vehicle: saline with Tween-80 93 % of control

CC/C(C)=C\CC/C(C)=C/COc1cccc(CC)c1
inactive: [1] 100 % of control | [2] 94 % of control | [3] 94 % of control

N#CC(CCO)(CCO)c1ccccc1
inactive: [4] 101 % of control | [5] 97 % of control | [6] 105 % of control

O=C(O)c1cccc(I)c1.[Ni]
inactive: dose: 25.0 mg/kg/injection, schedule: Q04DX002 (ip), vehicle: gum acacia 100 % of control | dose: 50.0 mg/kg/injection, schedule: Q04DX002 (ip), vehicle: gum acacia 94 % of control
